Experimental data published in patent US6828106B2, “Methods and compositions using coiled binding partners” (Cyclacel Limited, priority 1999, dated 2004).

Tests used:
TEV protease [1] = target: T1, TEV protease (Tobacco etch virus, UniProt P04517); test: TEV protease FRET assay with homodimer-forming reporter peptide; format: biochemical; conditions: 0.05-100 mM iodacetamide added prior to TEV protease; 6 μM reporter peptide, 30° C.; FIG. 9; read-out: IC50 value (TEV protease inhibitor iodacetamide) as determined by FRET analysis
T1 construct: Proteolytic cleavage was initiated by the addition of TEV protease (20U, Gibco Life Technologies); histidine tag; purchased Gibco Life Technologies
T1 sequence (P04517 2038-2279): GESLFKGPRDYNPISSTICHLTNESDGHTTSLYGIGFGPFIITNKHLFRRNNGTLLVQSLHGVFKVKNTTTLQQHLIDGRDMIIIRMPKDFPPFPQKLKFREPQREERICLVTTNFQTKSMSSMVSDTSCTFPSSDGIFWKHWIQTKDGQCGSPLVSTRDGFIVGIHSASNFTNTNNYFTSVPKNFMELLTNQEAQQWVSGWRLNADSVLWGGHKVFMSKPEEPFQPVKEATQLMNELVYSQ
Protocol: (§1) TEV protease activity and inhibition of TEV protease activity was determined by using a peptide capable of forming a homodimer, wherein homodimer formation is decreased following TEV protease cleavage of the peptide, according to the following method.
For FRET analysis the reporter peptide (KGR MRCLEDR VENLYSQ SYHLENE VARLRRL VGELAAK) (SEQ ID NO: 32) was labeled with fluorescein or rhodamine. The labeled peptides were incubated at a total peptide concentration of 6 μM (6:1 ratio, R:F) in 50 mM Tris pH 8, and 0.5 mM EDTA, and 1 mM DTT at 30° C. for 15 minutes in a total volume of 100 μl. Proteolytic cleavage was initiated by the addition of TEV protease (20U, Gibco Life Technologies), and monitored during the time course of the reaction by measuring the emission of fluorescein (excitation 485 nm, emission 520 nm) over time. Initial rates of change of fluorescein emission were determined for the linear portion of the reaction.
(§2) The activity of the TEV protease inhibitor iodacetamide was determined by FRET or FP assays performed as described above in the absence of iodacetamide or in the presence of 0.05-100 mM iodacetamide added prior to the addition of TEV protease. The results of these experiments are presented in FIG. 9 (FRET assay) and FIG. 11 (FP assay).

TEV protease [2] = target: T1, TEV protease; test: TEV protease FP assay with homodimer-forming reporter peptide; format: biochemical; conditions: 0.05-100 mM iodacetamide added prior to TEV protease; 6 μM reporter peptide, 30° C.; read-out: IC50 value (TEV protease inhibitor iodacetamide) as determined by FP analysis
Protocol: as §1
For FP analysis the reporter peptide (sequence recited above) was labeled with fluorescein or with biotin. The labeled peptides were incubated at a total peptide concentration of 6 μM (6:1 ratio, biotin:F) in 50 mM Tris, pH 8, 0.5 mM EDTA, 0.1 mg/ml BSA and 1 mM DTT at 30° C. for 5 minutes in a total volume of 100 μl. Proteolytic cleavage was initiated by the addition of TEV protease (20U), and monitored during the reaction time course by measuring the polarization of fluorescein (excitation 485 nm, emission 520 nm) over time. Initial rates of change of fluorescein polarization were determined for the linear portion of the reaction.
as §2

Structure (SMILES): NC(=O)CI [iodacetamide, reference compound]
- IC50 (TEV protease [1]): 885 µM
- IC50 (TEV protease [2]): 1000 µM
